Measurements taken from patent US20210392895A1, “NOVEL OXADIAZOLES” (PI INDUSTRIES LIMITED, priority 2018, published 2021).
Where a name gives a salt, the structure may show the parent alone.

Columns and labels:
Pyricularia oryzae = assay: microbe, parasite or virus in culture; assay type: cell-based; settings: 168 h, read-out: control
Rhizoctonia solani = Rhizoctonia solani (rice sheath blight/potato black scurf) in vitro test, radial growth on Potato Dextrose Agar; assay type: cell-based; settings: 168 h, compared to the untreated check, radial growth after seven days, read-out: control
Alternaria solani = Alternaria solani (early blight of tomato/potato) in vitro test, radial growth on Potato Dextrose Agar; assay type: cell-based; settings: 168 h, compared to the untreated check, radial growth after seven days, read-out: control
Phakopsora pachyrhizi = Phakopsora pachyrhizi test in soybean (greenhouse, preventive activity, disease severity rating); assay type: in vivo; settings: preventive spray on soybean, compared to the untreated check
Procedure, shortened: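 Greenhouse-raised young soybean plants sprayed with compound at stated rates, then inoculated one day later with 2.1×10^6 P. pachyrhizi spores and held at 25° C, 90% RH. Disease severity (0-100%) rated visually 3, 7, 10 and 15 days after application; % control calculated versus untreated plants.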

Colletotrichum capsici = Colletotrichum capsici (anthracnose) in vitro test, radial growth on Potato Dextrose Agar; settings: Colletotrichum truncatum, 168 h, read-out: control
Protocol: Compounds were dissolved in 0.3% DMSO and then added to Potato Dextrose Agar medium just prior to dispensing it into petri dishes. 5 mL medium with compound in the desired concentration was dispensed into 60 mm sterile petri-plates. After solidification, each plate was seeded with a 5 mm size mycelial disc taken form the periphery of an actively growing virulent culture plate. Plates were incubated in growth chambers at 25° C. temperature and 60% relative humidity for seven days and radial growth was measured.

Fusarium culmorum = Fusarium culmorum (foot rot of cereals) in vitro test, radial growth on Potato Dextrose Agar; assay type: cell-based; settings: 168 h, 25° C., seven days, read-out: control compared to the untreated check (radial growth)
Botrytis cinerea = Botrytis cinerea (gray mold) in vitro test, radial growth on Potato Dextrose Agar; assay type: cell-based; settings: 168 h, compared to the untreated check, radial growth after seven days, read-out: control
Corynespora cassicola = Corynespora cassicola (leaf spot of tomato) in vitro test, radial growth on Potato Dextrose Agar; assay type: cell-based; settings: 168 h, compared to the untreated check, radial growth after seven days, read-out: control

O=C(c1ccncc1)N1CC[C@H](Oc2ccc(-c3noc(C(F)(F)F)n3)cn2)C1 [Compound 49, (S)-pyridin-4-yl(3-((5-(5-(trifluoromethyl)-1,2,4-oxadiazol-3-yl)pyridin-2-yl)oxy)pyrrolidin-1-yl)methanone]
> 70%: inhibition of growth at 300 ppm (Pyricularia oryzae) | inhibition of growth at 300 ppm (Rhizoctonia solani) | inhibition of growth at 300 ppm (Alternaria solani) | pest or weed control at 500 ppm (Phakopsora pachyrhizi) | inhibition of growth at 300 ppm (Colletotrichum capsici)

O=C(c1cocn1)N1CC[C@H](Oc2ccc(-c3noc(C(F)(F)F)n3)cn2)C1 [Compound 199, (S)-oxazol-4-yl(3-((5-(5-(trifluoromethyl)-1,2,4-oxadiazol-3-yl)pyridin-2-yl)oxy)pyrrolidin-1-yl)methanone]
> 70%: inhibition of growth at 300 ppm (Pyricularia oryzae) | inhibition of growth at 300 ppm (Alternaria solani) | inhibition of growth at 300 ppm (Fusarium culmorum) | inhibition of growth at 300 ppm (Colletotrichum capsici)

CC(=O)N1CC(N(C)c2ccc(-c3noc(C(F)(F)F)n3)cc2)C1 [Compound 89, 1-(3-(methyl(4-(5-(trifluoromethyl)-1,2,4-oxadiazol-3-yl)phenyl)amino)azetidin-1-yl)ethan-1-one]
> 70%: inhibition of growth at 300 ppm (Pyricularia oryzae) | inhibition of growth at 300 ppm (Rhizoctonia solani) | inhibition of growth at 300 ppm (Botrytis cinerea) | inhibition of growth at 300 ppm (Alternaria solani) | inhibition of growth at 300 ppm (Fusarium culmorum) | inhibition of growth at 300 ppm (Corynespora cassicola) | inhibition of growth at 300 ppm (Colletotrichum capsici)

FC(F)(F)c1nc(-c2ccc(S[C@@H]3CCNC3)cc2)no1 [Compound 158, (R)-3-(4-(pyrrolidin-3-ylthio)phenyl)-5-(trifluoromethyl)-1,2,4-oxadiazole Hydrochloride]
> 70%: inhibition of growth at 300 ppm (Alternaria solani) | inhibition of growth at 300 ppm (Corynespora cassicola)

O=C(c1ccncc1)N1CC[C@H](Oc2ccc(-c3noc(C(F)(F)F)n3)cc2F)C1 [Compound 59, (S)-(3-(2-fluoro-4-(5-(trifluoromethyl)-1,2,4-oxadiazol-3-yl)phenoxy)pyrrolidin-1-yl)(pyridin-4-yl)methanone]
> 70%: inhibition of growth at 300 ppm (Pyricularia oryzae) | inhibition of growth at 300 ppm (Rhizoctonia solani) | inhibition of growth at 300 ppm (Botrytis cinerea) | inhibition of growth at 300 ppm (Alternaria solani) | pest or weed control at 500 ppm (Phakopsora pachyrhizi) | inhibition of growth at 300 ppm (Colletotrichum capsici)

FC(F)(F)c1nc(-c2ccc(O[C@H]3CCN(Cc4ccccc4)C3)cc2)no1 [Compound 137, (S)-3-(4-((1-benzylpyrrolidin-3-yl)oxy)phenyl)-5-(trifluoromethyl)-1,2,4-oxadiazole]
> 70%: inhibition of growth at 300 ppm (Pyricularia oryzae) | inhibition of growth at 300 ppm (Rhizoctonia solani) | inhibition of growth at 300 ppm (Alternaria solani) | inhibition of growth at 300 ppm (Corynespora cassicola)

O=C(Cc1ccccn1)N1CC[C@H](Oc2ccc(-c3noc(C(F)(F)F)n3)cc2)C1 [Compound 55, (S)-2-(pyridin-2-yl)-1-(3-(4-(5-(trifluoromethyl)-1,2,4-oxadiazol-3-yl)phenoxy)pyrrolidin-1-yl)ethan-1-one]
> 70%: inhibition of growth at 300 ppm (Pyricularia oryzae) | inhibition of growth at 300 ppm (Rhizoctonia solani) | inhibition of growth at 300 ppm (Botrytis cinerea) | inhibition of growth at 300 ppm (Fusarium culmorum) | inhibition of growth at 300 ppm (Corynespora cassicola) | inhibition of growth at 300 ppm (Colletotrichum capsici)

O=C(c1cccnc1)N1CC[C@H](Oc2ccc(-c3noc(C(F)(F)F)n3)cc2)C1 [Compound 12, (S)-pyridin-3-yl(3-(4-(5-(trifluoromethyl)-1,2,4-oxadiazol-3-yl)phenoxy)pyrrolidin-1-yl)methanone]
> 70%: inhibition of growth at 300 ppm (Pyricularia oryzae) | inhibition of growth at 300 ppm (Rhizoctonia solani) | inhibition of growth at 300 ppm (Alternaria solani) | inhibition of growth at 300 ppm (Fusarium culmorum) | pest or weed control at 500 ppm (Phakopsora pachyrhizi) | inhibition of growth at 300 ppm (Colletotrichum capsici)

CC(=O)N1CC[C@H](Oc2ccc(-c3noc(C(F)(F)F)n3)cc2F)C1 [Compound 69, (S)-1-(3-(2-fluoro-4-(5-(trifluoromethyl)-1,2,4-oxadiazol-3-yl)phenoxy)pyrrolidin-1-yl)ethan-1-one]
> 70%: inhibition of growth at 300 ppm (Pyricularia oryzae) | inhibition of growth at 300 ppm (Rhizoctonia solani) | inhibition of growth at 300 ppm (Botrytis cinerea) | inhibition of growth at 300 ppm (Alternaria solani) | inhibition of growth at 300 ppm (Fusarium culmorum) | inhibition of growth at 300 ppm (Corynespora cassicola) | inhibition of growth at 300 ppm (Colletotrichum capsici)

CCC(=O)N1CC(N(C)c2ccc(-c3noc(C(F)(F)F)n3)cc2)C1 [Compound 100, 1-(3-(methyl(4-(5-(trifluoromethyl)-1,2,4-oxadiazol-3-yl)phenyl)amino)azetidin-1-yl)propan-1-one]
> 70%: inhibition of growth at 300 ppm (Pyricularia oryzae) | inhibition of growth at 300 ppm (Rhizoctonia solani) | inhibition of growth at 300 ppm (Botrytis cinerea) | inhibition of growth at 300 ppm (Alternaria solani) | inhibition of growth at 300 ppm (Fusarium culmorum) | inhibition of growth at 300 ppm (Corynespora cassicola) | pest or weed control at 500 ppm (Phakopsora pachyrhizi) | inhibition of growth at 300 ppm (Colletotrichum capsici)

O=C(c1cccnc1)N1CC[C@H](Oc2ccc(-c3noc(C(F)(F)F)n3)cn2)C1 [Compound 48, (S)-pyridin-3-yl(3-((5-(5-(trifluoromethyl)-1,2,4-oxadiazol-3-yl)pyridin-2-yl)oxy)pyrrolidin-1-yl)methanone]
> 70%: inhibition of growth at 300 ppm (Pyricularia oryzae) | inhibition of growth at 300 ppm (Rhizoctonia solani) | inhibition of growth at 300 ppm (Botrytis cinerea) | inhibition of growth at 300 ppm (Alternaria solani) | pest or weed control at 500 ppm (Phakopsora pachyrhizi)

Cc1ccc(CN2CC[C@H](Oc3ccc(-c4noc(C(F)(F)F)n4)cc3)C2)cc1 [Compound 163, (S)-3-(4-((1-(4-methylbenzyl)pyrrolidin-3-yl)oxy)phenyl)-5-(trifluoromethyl)-1,2,4-oxadiazole]
> 70%: inhibition of growth at 300 ppm (Pyricularia oryzae) | inhibition of growth at 300 ppm (Rhizoctonia solani) | inhibition of growth at 300 ppm (Botrytis cinerea) | inhibition of growth at 300 ppm (Alternaria solani) | inhibition of growth at 300 ppm (Corynespora cassicola)

FC(F)(F)c1nc(-c2ccc(OC3CCNCC3)cc2)no1 [Compound 85, 3-(4-(piperidin-4-yloxy)phenyl)-5-(trifluoromethyl)-1,2,4-oxadiazole Hydrochloride]
> 70%: inhibition of growth at 300 ppm (Pyricularia oryzae) | inhibition of growth at 300 ppm (Rhizoctonia solani) | inhibition of growth at 300 ppm (Alternaria solani) | inhibition of growth at 300 ppm (Corynespora cassicola) | pest or weed control at 500 ppm (Phakopsora pachyrhizi)

CC(=O)N1CCC(Oc2ccc(-c3noc(C(F)(F)F)n3)cc2)CC1 [Compound 95, 1-(4-(4-(5-(trifluoromethyl)-1,2,4-oxadiazol-3-yl)phenoxy)piperidin-1-yl)ethan-1-one]
> 70%: inhibition of growth at 300 ppm (Pyricularia oryzae) | inhibition of growth at 300 ppm (Rhizoctonia solani) | inhibition of growth at 300 ppm (Botrytis cinerea) | inhibition of growth at 300 ppm (Alternaria solani) | inhibition of growth at 300 ppm (Fusarium culmorum) | inhibition of growth at 300 ppm (Corynespora cassicola) | inhibition of growth at 300 ppm (Colletotrichum capsici)

O=C(c1ccncc1)N1CC[C@H](Oc2ccc(-c3noc(C(F)(F)F)n3)c(F)c2)C1 [Compound 66, (S)-(3-(3-fluoro-4-(5-(trifluoromethyl)-1,2,4-oxadiazol-3-yl)phenoxy)pyrrolidin-1-yl)(pyridin-4-yl)methanone]
> 70%: inhibition of growth at 300 ppm (Pyricularia oryzae) | inhibition of growth at 300 ppm (Rhizoctonia solani) | inhibition of growth at 300 ppm (Botrytis cinerea) | inhibition of growth at 300 ppm (Alternaria solani) | inhibition of growth at 300 ppm (Fusarium culmorum) | inhibition of growth at 300 ppm (Corynespora cassicola) | inhibition of growth at 300 ppm (Colletotrichum capsici)

CC(=O)N1CC[C@H](Oc2ccc(-c3noc(C(F)(F)F)n3)c(F)c2)C1 [Compound 68, (S)-1-(3-(3-fluoro-4-(5-(trifluoromethyl)-1,2,4-oxadiazol-3-yl)phenoxy)pyrrolidin-1-yl)ethan-1-one]
> 70%: inhibition of growth at 300 ppm (Pyricularia oryzae) | inhibition of growth at 300 ppm (Rhizoctonia solani) | inhibition of growth at 300 ppm (Botrytis cinerea) | inhibition of growth at 300 ppm (Alternaria solani) | inhibition of growth at 300 ppm (Colletotrichum capsici)

CC(=O)N1CC[C@@H](Sc2ccc(-c3noc(C(F)(F)F)n3)cc2)C1 [Compound 165, (R)-1-(3-((4-(5-(trifluoromethyl)-1,2,4-oxadiazol-3-yl)phenyl)thio)pyrrolidin-1-yl)ethan-1-one]
> 70%: inhibition of growth at 300 ppm (Pyricularia oryzae) | inhibition of growth at 300 ppm (Rhizoctonia solani) | inhibition of growth at 300 ppm (Botrytis cinerea) | inhibition of growth at 300 ppm (Alternaria solani) | inhibition of growth at 300 ppm (Corynespora cassicola) | inhibition of growth at 300 ppm (Colletotrichum capsici)

CC(=O)N1CC[C@H](Oc2ccc(-c3noc(C(F)(F)F)n3)cc2)C1 [Compound 2, (S)-1-(3-(4-(5-(trifluoromethyl)-1,2,4-oxadiazol-3-yl)phenoxy)pyrrolidin-1-yl)ethan-1-one]
> 70%: inhibition of growth at 300 ppm (Pyricularia oryzae) | inhibition of growth at 300 ppm (Rhizoctonia solani) | inhibition of growth at 300 ppm (Botrytis cinerea) | inhibition of growth at 300 ppm (Alternaria solani) | inhibition of growth at 300 ppm (Fusarium culmorum) | inhibition of growth at 300 ppm (Corynespora cassicola) | pest or weed control at 500 ppm (Phakopsora pachyrhizi) | inhibition of growth at 300 ppm (Colletotrichum capsici)

FC(F)(F)c1nc(-c2ccc(O[C@H]3CCN(Cc4ccc(Cl)cc4)C3)cc2)no1 [Compound 180, (S)-3-(4-((1-(4-chlorobenzyl)pyrrolidin-3-yl)oxy)phenyl)-5-(trifluoromethyl)-1,2,4-oxadiazole]
> 70%: inhibition of growth at 300 ppm (Pyricularia oryzae) | inhibition of growth at 300 ppm (Botrytis cinerea) | inhibition of growth at 300 ppm (Alternaria solani) | inhibition of growth at 300 ppm (Corynespora cassicola) | inhibition of growth at 300 ppm (Colletotrichum capsici)

O=C(c1ccncc1)N1CC[C@H](Oc2ccc(-c3noc(C(F)(F)F)n3)cc2)C1 [Compound 13, (S)-pyridin-4-yl(3-(4-(5-(trifluoromethyl)-1,2,4-oxadiazol-3-yl)phenoxy)pyrrolidin-1-yl)methanone]
> 70%: inhibition of growth at 300 ppm (Pyricularia oryzae) | inhibition of growth at 300 ppm (Rhizoctonia solani) | inhibition of growth at 300 ppm (Botrytis cinerea) | inhibition of growth at 300 ppm (Alternaria solani) | inhibition of growth at 300 ppm (Fusarium culmorum) | pest or weed control at 500 ppm (Phakopsora pachyrhizi) | inhibition of growth at 300 ppm (Colletotrichum capsici)
